Data as given in article PMC4051656, “Cyanuric Acid Hydrolase from Azorhizobium caulinodans ORS 571: Crystal Structure and Insights into a New Class of Ser-Lys Dyad Proteins” (PLoS ONE, 2014).

Target: T1, CAH (cyanuric acid hydrolase from Azorhizobium caulinodans ORS 571) (Azorhizobium caulinodans, UniProt A8IKD2)
T1 construct: gene AZC_3892; heterologously expressed and purified; selenomethionine-substituted for the crystal; domains A 1-99, B 108-242, C 249-355; homotetramer
T1 sequence (A8IKD2 1-356): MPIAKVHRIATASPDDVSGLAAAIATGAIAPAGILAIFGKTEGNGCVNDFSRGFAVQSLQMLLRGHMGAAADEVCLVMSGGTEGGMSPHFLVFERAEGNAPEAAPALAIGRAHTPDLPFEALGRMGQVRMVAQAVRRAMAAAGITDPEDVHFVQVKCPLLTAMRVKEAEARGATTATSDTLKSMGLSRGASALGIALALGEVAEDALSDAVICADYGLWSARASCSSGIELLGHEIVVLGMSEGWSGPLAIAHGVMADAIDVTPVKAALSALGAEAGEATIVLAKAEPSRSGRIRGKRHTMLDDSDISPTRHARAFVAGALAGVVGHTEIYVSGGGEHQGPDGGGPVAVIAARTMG
Assay: X-ray crystal structure of complex (SAD, […] Å)
Type: binding
Conditions: selenomethionine protein; Tris-HCl pH 7.0-7.5, magnesium sulfate, 20 °C; active site in both subunits; second site on surface of one subunit at lower occupancy

O=C1CC(=O)NC(=O)N1 [barbituric acid]
X-ray crystal structure of complex (SAD, 2.7 Å): a molecule of the highly analogous substrate analog, barbituric acid was found
